Assay results as given in PubChem BioAssay (NCI).
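Values below derive from 48-hour exposures of cells grown in 96-well plates, with endpoints linearly interpolated between the two concentrations bracketing the appropriate inhibition level. Abbreviation: GI50, concentration required for 50% inhibition of growth. TGI: concentration producing complete growth inhibition.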

Experiments:
Assay in all cases: growth of human tumour cells (NCI), 48 h
MOLT-4 leukemia = test system: MOLT-4 leukemia
KM12 colon = test system: KM12 colon
T-47D breast = test system: T-47D breast
ACHN renal = test system: ACHN renal
SK-MEL-28 melanoma = test system: SK-MEL-28 melanoma
PC-3 prostate = test system: PC-3 prostate
SN12C renal = test system: SN12C renal
SW-620 colon = test system: SW-620 colon
HOP-62 NSCLC = test system: HOP-62 NSCLC
UACC-62 melanoma = test system: UACC-62 melanoma
DU-145 prostate = test system: DU-145 prostate
OVCAR-4 ovarian = test system: OVCAR-4 ovarian
A498 renal = test system: A498 renal
CCRF-CEM leukemia = test system: CCRF-CEM leukemia
UO-31 renal = test system: UO-31 renal
LOX IMVI melanoma = test system: LOX IMVI melanoma
MDA-MB-231 breast = test system: MDA-MB-231 breast
SF-295 CNS = test system: SF-295 CNS
EKVX NSCLC = test system: EKVX NSCLC
COLO 205 colon = test system: COLO 205 colon
HCT-15 colon = test system: HCT-15 colon
SK-MEL-5 melanoma = test system: SK-MEL-5 melanoma
M14 melanoma = test system: M14 melanoma
U251 CNS = test system: U251 CNS
NCI-H460 lung = test system: NCI-H460 lung
NCI/ADR-RES ovarian = test system: NCI/ADR-RES ovarian
HS 578T breast = test system: HS 578T breast
NCI-H23 lung = test system: NCI-H23 lung
RPMI-8226 leukemia = test system: RPMI-8226 leukemia
786-0 renal = test system: 786-0 renal
SF-268 CNS = test system: SF-268 CNS
HCT-116 colon = test system: HCT-116 colon
SNB-19 CNS = test system: SNB-19 CNS
UACC-257 melanoma = test system: UACC-257 melanoma
HCC-2998 colon = test system: HCC-2998 colon
OVCAR-8 ovarian = test system: OVCAR-8 ovarian
NCI-H522 lung = test system: NCI-H522 lung
TK-10 renal = test system: TK-10 renal
SK-MEL-2 melanoma = test system: SK-MEL-2 melanoma
MCF7 breast = test system: MCF7 breast
MDA-MB-435 = test system: MDA-MB-435
OVCAR-3 ovarian = test system: OVCAR-3 ovarian
SK-OV-3 ovarian = test system: SK-OV-3 ovarian
A549 NSCLC = test system: A549 NSCLC
SNB-75 CNS = test system: SNB-75 CNS
BT-549 breast = test system: BT-549 breast
OVCAR-5 ovarian = test system: OVCAR-5 ovarian
RXF 393 renal = test system: RXF 393 renal
MALME-3M melanoma = test system: MALME-3M melanoma
IGROV1 ovarian = test system: IGROV1 ovarian
CAKI-1 renal = test system: CAKI-1 renal
HT29 colon = test system: HT29 colon
HOP-92 NSCLC = test system: HOP-92 NSCLC
SF-539 CNS = test system: SF-539 CNS
HL-60(TB) leukemia = test system: HL-60(TB) leukemia
K-562 leukemia = test system: K-562 leukemia
SR leukemia = test system: SR leukemia
NCI-H226 lung = test system: NCI-H226 lung

Work on `CC1/C(=N/Nc2ccc([N+](=O)[O-])cc2)CC2C3(C)CCC2(C(C)C(=O)O)C(=O)C13` (stereo not given) yielded a GI50 (MOLT-4 leukemia) of 22.5 µM, a TGI (MOLT-4 leukemia) greater than 100 µM and a GI50 (KM12 colon) of 11.3 µM. For the same molecule, the TGI (KM12 colon) was greater than 100 µM, the GI50 (T-47D breast) was 4.14 µM and the TGI (T-47D breast) was greater than 100 µM. It also gave a GI50 (ACHN renal) of 6.33 µM, a TGI (ACHN renal) greater than 100 µM and a GI50 (SK-MEL-28 melanoma) greater than 100 µM. The TGI (SK-MEL-28 melanoma) was greater than 100 µM, the GI50 (PC-3 prostate) was 34.4 µM and the TGI (PC-3 prostate) was greater than 100 µM. It also gave a GI50 (SN12C renal) of 60.9 µM, a TGI (SN12C renal) greater than 100 µM and a GI50 (SW-620 colon) of 49.4 µM. For the same molecule, the TGI (SW-620 colon) was greater than 100 µM, the GI50 (HOP-62 NSCLC) was 95 µM and the TGI (HOP-62 NSCLC) was greater than 100 µM. For the same molecule, the GI50 (UACC-62 melanoma) was 6.51 µM, the TGI (UACC-62 melanoma) was greater than 100 µM and the GI50 (DU-145 prostate) was greater than 100 µM. For the same molecule, the TGI (DU-145 prostate) was greater than 100 µM, the GI50 (OVCAR-4 ovarian) was greater than 100 µM and the TGI (OVCAR-4 ovarian) was greater than 100 µM. For the same molecule, the GI50 (A498 renal) was 0.85 µM, the TGI (A498 renal) was 41.9 µM and the GI50 (CCRF-CEM leukemia) was 16.3 µM. It also gave a TGI (CCRF-CEM leukemia) greater than 100 µM, a GI50 (UO-31 renal) of 4.31 µM and a TGI (UO-31 renal) greater than 100 µM. It also gave a GI50 (LOX IMVI melanoma) of 75.3 µM, a TGI (LOX IMVI melanoma) greater than 100 µM and a GI50 (MDA-MB-231 breast) of 4.06 µM. The TGI (MDA-MB-231 breast) was greater than 100 µM, the GI50 (SF-295 CNS) was 4.74 µM and the TGI (SF-295 CNS) was greater than 100 µM. The GI50 (EKVX NSCLC) was 3.36 µM, the TGI (EKVX NSCLC) was greater than 100 µM and the GI50 (COLO 205 colon) was 9 µM. For the same molecule, the TGI (COLO 205 colon) was greater than 100 µM, the GI50 (HCT-15 colon) was 4.22 µM and the TGI (HCT-15 colon) was greater than 100 µM. For the same molecule, the GI50 (SK-MEL-5 melanoma) was 11.4 µM, the TGI (SK-MEL-5 melanoma) was greater than 100 µM and the GI50 (M14 melanoma) was 11.2 µM. For the same molecule, the TGI (M14 melanoma) was greater than 100 µM, the GI50 (U251 CNS) was 30.2 µM and the TGI (U251 CNS) was greater than 100 µM. The GI50 (NCI-H460 lung) was 5.88 µM, the TGI (NCI-H460 lung) was greater than 100 µM and the GI50 (NCI/ADR-RES ovarian) was 5.7 µM. For the same molecule, the TGI (NCI/ADR-RES ovarian) was greater than 100 µM, the GI50 (HS 578T breast) was 3.55 µM and the TGI (HS 578T breast) was greater than 100 µM. It also gave a GI50 (NCI-H23 lung) of 29.1 µM, a TGI (NCI-H23 lung) greater than 100 µM and a GI50 (RPMI-8226 leukemia) of 2.95 µM. The TGI (RPMI-8226 leukemia) was 24 µM, the GI50 (786-0 renal) was 11.3 µM and the TGI (786-0 renal) was greater than 100 µM. For the same molecule, the GI50 (SF-268 CNS) was 33.5 µM, the TGI (SF-268 CNS) was greater than 100 µM and the GI50 (HCT-116 colon) was 6.97 µM. For the same molecule, the TGI (HCT-116 colon) was greater than 100 µM, the GI50 (SNB-19 CNS) was greater than 100 µM and the TGI (SNB-19 CNS) was greater than 100 µM. The GI50 (UACC-257 melanoma) was greater than 100 µM, the TGI (UACC-257 melanoma) was greater than 100 µM and the GI50 (HCC-2998 colon) was 2.39 µM. The TGI (HCC-2998 colon) was 51.7 µM, the GI50 (OVCAR-8 ovarian) was 8.17 µM and the TGI (OVCAR-8 ovarian) was greater than 100 µM. The GI50 (NCI-H522 lung) was 4.48 µM, the TGI (NCI-H522 lung) was greater than 100 µM and the GI50 (TK-10 renal) was 9.98 µM. For the same molecule, the TGI (TK-10 renal) was greater than 100 µM, the GI50 (SK-MEL-2 melanoma) was 8.75 µM and the TGI (SK-MEL-2 melanoma) was greater than 100 µM. For the same molecule, the GI50 (MCF7 breast) was 7.17 µM, the TGI (MCF7 breast) was greater than 100 µM and the GI50 (MDA-MB-435) was 27.4 µM. It also gave a TGI (MDA-MB-435) greater than 100 µM, a GI50 (OVCAR-3 ovarian) of 1.72 µM and a TGI (OVCAR-3 ovarian) greater than 100 µM. The GI50 (SK-OV-3 ovarian) was greater than 100 µM, the TGI (SK-OV-3 ovarian) was greater than 100 µM and the GI50 (A549 NSCLC) was 5.5 µM. For the same molecule, the TGI (A549 NSCLC) was greater than 100 µM, the GI50 (SNB-75 CNS) was greater than 100 µM and the TGI (SNB-75 CNS) was greater than 100 µM. For the same molecule, the GI50 (BT-549 breast) was 12.3 µM, the TGI (BT-549 breast) was greater than 100 µM and the GI50 (OVCAR-5 ovarian) was greater than 100 µM. For the same molecule, the TGI (OVCAR-5 ovarian) was greater than 100 µM, the GI50 (RXF 393 renal) was 3.18 µM and the TGI (RXF 393 renal) was greater than 100 µM. For the same molecule, the GI50 (MALME-3M melanoma) was greater than 100 µM, the TGI (MALME-3M melanoma) was greater than 100 µM and the GI50 (IGROV1 ovarian) was greater than 100 µM. The TGI (IGROV1 ovarian) was greater than 100 µM, the GI50 (CAKI-1 renal) was 5.95 µM and the TGI (CAKI-1 renal) was greater than 100 µM. For the same molecule, the GI50 (HT29 colon) was 6.18 µM, the TGI (HT29 colon) was greater than 100 µM and the GI50 (HOP-92 NSCLC) was 23.6 µM. For the same molecule, the TGI (HOP-92 NSCLC) was greater than 100 µM, the GI50 (SF-539 CNS) was 5.44 µM and the TGI (SF-539 CNS) was greater than 100 µM.
`S=C(Nc1ccccc1)N(Cc1ccccc1)c1ccccc1` was tested, and the TGI (MOLT-4 leukemia) was greater than 100 µM, the TGI (KM12 colon) was 69.6 µM and the TGI (T-47D breast) was greater than 100 µM. For the same molecule, the TGI (ACHN renal) was greater than 100 µM, the TGI (HL-60(TB) leukemia) was greater than 100 µM and the TGI (SK-MEL-28 melanoma) was 78.4 µM. For the same molecule, the TGI (SN12C renal) was greater than 100 µM, the TGI (SW-620 colon) was greater than 100 µM and the TGI (HOP-62 NSCLC) was greater than 100 µM. It also gave a TGI (UACC-62 melanoma) of 70.7 µM, a TGI (DU-145 prostate) of 24.7 µM and a TGI (OVCAR-4 ovarian) of 93.6 µM. For the same molecule, the TGI (A498 renal) was 67.2 µM, the TGI (CCRF-CEM leukemia) was greater than 100 µM and the TGI (UO-31 renal) was greater than 100 µM. It also gave a TGI (LOX IMVI melanoma) greater than 100 µM, a TGI (MDA-MB-231 breast) greater than 100 µM and a TGI (SF-295 CNS) greater than 100 µM. It also gave a TGI (EKVX NSCLC) of 58.4 µM, a TGI (COLO 205 colon) of 51.8 µM and a TGI (HCT-15 colon) greater than 100 µM. The TGI (SK-MEL-5 melanoma) was 28.5 µM, the TGI (M14 melanoma) was greater than 100 µM and the TGI (U251 CNS) was greater than 100 µM. It also gave a TGI (K-562 leukemia) greater than 100 µM, a TGI (NCI-H460 lung) greater than 100 µM and a TGI (NCI/ADR-RES ovarian) greater than 100 µM. For the same molecule, the TGI (HS 578T breast) was greater than 100 µM, the TGI (NCI-H23 lung) was greater than 100 µM and the TGI (RPMI-8226 leukemia) was greater than 100 µM. For the same molecule, the TGI (786-0 renal) was greater than 100 µM, the TGI (SF-268 CNS) was greater than 100 µM and the TGI (HCT-116 colon) was greater than 100 µM. It also gave a TGI (SNB-19 CNS) greater than 100 µM, a TGI (UACC-257 melanoma) of 54.6 µM and a TGI (HCC-2998 colon) greater than 100 µM. It also gave a TGI (NCI-H522 lung) of 62.3 µM, a TGI (TK-10 renal) of 80.3 µM and a TGI (SK-MEL-2 melanoma) of 41.2 µM. It also gave a TGI (MCF7 breast) greater than 100 µM, a TGI (MDA-MB-435) of 49.5 µM and a TGI (OVCAR-3 ovarian) greater than 100 µM. For the same molecule, the TGI (SK-OV-3 ovarian) was greater than 100 µM, the TGI (A549 NSCLC) was greater than 100 µM and the TGI (SNB-75 CNS) was greater than 100 µM. The TGI (BT-549 breast) was 4.97 µM, the TGI (OVCAR-5 ovarian) was greater than 100 µM and the TGI (SR leukemia) was greater than 100 µM. It also gave a TGI (RXF 393 renal) of 85 µM, a TGI (MALME-3M melanoma) of 37.2 µM and a TGI (IGROV1 ovarian) greater than 100 µM. For the same molecule, the TGI (NCI-H226 lung) was greater than 100 µM, the TGI (CAKI-1 renal) was 90.3 µM and the TGI (HT29 colon) was 85.9 µM. The TGI (HOP-92 NSCLC) was greater than 100 µM and the TGI (SF-539 CNS) was 66 µM.
With `C=C(CNCCc1ccc(O)cc1)[C@@H]1CC[C@]2(COC3CCCCO3)CC[C@]3(C)[C@H](CC[C@@H]4[C@@]5(C)CCC(N)C(C)(C)[C@@H]5CC[C@]43C)[C@@H]12` (stereo not given in full) the GI50 (U251 CNS) was 0.306 µM, the TGI (U251 CNS) was greater than 100 µM and the GI50 (K-562 leukemia) was 0.305 µM. For the same molecule, the TGI (K-562 leukemia) was greater than 100 µM, the GI50 (SR leukemia) was 0.289 µM and the TGI (SR leukemia) was greater than 100 µM.
